Laboratory results taken from US6624154B1, “Compositions and methods for treatment of hyperproliferative diseases” (Bristol-Myers Squibb Company, priority 1999, dated 2003).
One block for each compound: values may come before it.

Experiments:
NB4 cells [1] = experiment: NB4 cell maturation (morphology, NBT reduction, CD11c integrin expression); assay type: cell-based, human; details: for Induction of NB4 cell maturation/differentiation, agent alone: ATRA 1 μM, other agonists 0.2 μM, 8CPT-cAMP 100 μM, 72 h (NBT, morphology), 48 h (CD11c); for NB4 cell maturation in presence of 8CPT-cAMP: co-treatment with PKA agonist 8CPT-cAMP 100 μM
Experimental: Morphological features of NB4 cells in response to treatments (after 72 h). […] Nitroblue tetrazolium enzymatic reduction in retinoid-treated NB4 cells (after 72 h; percent of positive cells).
Cells and cultures. […] Essentially, cultures were established with log phase growing cells at concentration (10^5 ocell per ml) allowing exponential growth of untreated control cultures over 3 days without medium replenishment. […] Cultures were light-protected.
Morphological and functional cell maturation analysis. Cell morphology was analyzed after May-Grünwald staining. […] Morphology analysis and NBT reaction were performed after 72 h of treatment. At least 300 cells were analyzed for each treated culture.
Flow cytometry analysis of CD11c cell surface integrin. […] Briefly, after incubation (48 h), cells were washed in PBS and labeled with an anti-human CD11c FITC mouse monoclonal antibody (Becton-Dickinson). Cells were then washed twice in PBS and fixed in 1% paraformaldehyde/PBS solution. Cells were analyzed using a COULTER flow-cytometer.

T47D = experiment: Lipid accumulation (Nile Red staining) in T47D breast cancer cells; assay type: cell-based, human; details: 7 days; for Increase of differentiation by addition of CPT-cAMP over RXR ligand alone: 1 μM RXR ligand plus 100 μM 8CPT-cAMP; for EC50: RXR compound alone, Nile Red
Experimental: Staining Solution: Stock Solution (1 mg Nile red and 1 ml acetone were mixed thoroughly and stored, chilled and protected from light).
Staining. For Fluorescence Microscope, a drop of dye-glycerol solution was added to a slide and covered with a glass coverslip. After 5 minutes, the slide was viewed by fluorescence microscope, Excitation 450-500 nm, Emission>528 nm. For Flow Cytofluorometry, the medium was aspirated off from cells and washed with PBS two times (serum in the medium drained the dye out of the cells). Then the cells were trypsinized and washed with PBS to get rid of trypsin. The cells were spun down and resuspended in 1 ml PBS (1-2×10^6/ml). The stock dye was added directly to the cells suspension in PBS with 1:100 dilution, and incubated at room temperature for a minimal of 5 minutes, and the samples were analyzed immediately. For Fluorescence Spectra, the medium was removed from 96-well plates and the cells were washed once with PBS. […] Diluted dye in PBS (1:100 from stock) was added to the cells, incubated for 5 minutes, and the plate was read at Excitation 488nm with a 2-nm slit width, emission at 540 nm with a 20-nm slit width.
Cells. Breast cancer cell line T47D was obtained from American Type Culture Collection, Manassas, Va.

NB4 cells [2] = experiment: Cytokine expression in NB4 cells by RNAse protection assay; assay type: cell-based, human; details: for G-CSF expression: agent alone, 0, 24, 48 h
Experimental: (§1) Modulation of cytokine expression in NB4 cells was assessed by RNAse protection assays. […] For comparison the effect of vitamin D3 (“D3”) was studied also. […] The intact probes run on the same gel are shown on the left (L32 and GAPDH are the invariant internal controls used for calibration) and the positions of the protected fragments are indicated. […] Only the positions of the protected fragments are shown.
(§2) RPA analysis. Total RNA was extracted with the Trizol reagent (Gibco BRL). The ribonuclease protection assay was performed according to the supplier's instructions (Pharmingen, San Diego, Calif.). […] RNA (4 μg) and 6×10^5 cpm of labeled probes were used for hybridization. After RNAse treatments, the protected probes were resolved on a 5% urea-polyacrylamide-bis-acrylamide gel.

NB4-R2 cells = experiment: Cytokine expression in NB4-R2 cells by RNAse protection assay; assay type: cell-based, human
Experimental: as §1, §2

RARα-RXRα heterodimer = target: T1, RARα-RXRα heterodimer (Homo sapiens, UniProt P10276+P19793); experiment: Transient transfection, RARα-RXRα heterodimer activity on DR5-tk-CAT reporter
T1 sequence (P10276 1-462): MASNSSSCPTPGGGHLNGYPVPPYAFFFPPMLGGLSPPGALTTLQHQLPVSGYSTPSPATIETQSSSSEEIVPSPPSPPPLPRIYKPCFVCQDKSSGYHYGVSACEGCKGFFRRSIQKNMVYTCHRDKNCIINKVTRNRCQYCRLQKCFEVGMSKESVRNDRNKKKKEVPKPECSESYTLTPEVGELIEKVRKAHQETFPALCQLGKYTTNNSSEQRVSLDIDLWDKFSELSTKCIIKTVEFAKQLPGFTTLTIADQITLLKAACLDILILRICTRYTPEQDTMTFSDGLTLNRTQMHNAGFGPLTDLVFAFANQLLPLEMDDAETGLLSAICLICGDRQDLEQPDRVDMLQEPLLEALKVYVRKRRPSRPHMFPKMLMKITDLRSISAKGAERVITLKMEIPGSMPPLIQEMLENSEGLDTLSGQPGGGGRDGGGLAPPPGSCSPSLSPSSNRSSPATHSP
T1 sequence (P19793 1-462): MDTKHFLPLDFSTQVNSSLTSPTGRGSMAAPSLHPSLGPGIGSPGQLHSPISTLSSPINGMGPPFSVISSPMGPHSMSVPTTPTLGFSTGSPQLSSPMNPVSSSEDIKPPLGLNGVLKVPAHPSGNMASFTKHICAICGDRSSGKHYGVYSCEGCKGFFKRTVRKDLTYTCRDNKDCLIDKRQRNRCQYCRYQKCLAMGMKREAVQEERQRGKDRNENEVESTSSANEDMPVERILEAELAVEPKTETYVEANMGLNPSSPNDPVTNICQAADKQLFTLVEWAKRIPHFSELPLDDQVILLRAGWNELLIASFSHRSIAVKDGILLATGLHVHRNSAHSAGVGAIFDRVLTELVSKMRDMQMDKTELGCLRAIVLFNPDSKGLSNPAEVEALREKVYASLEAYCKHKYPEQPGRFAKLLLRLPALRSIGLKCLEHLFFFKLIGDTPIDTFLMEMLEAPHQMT

SMILES: C=C1CC[C@H](O)C/C1=C/C=C1\CCC[C@]2(C)[C@@H]([C@H](C)CCCC(C)C)CC[C@@H]12 [vitamin D3]
Induction of NB4 cell maturation/differentiation, agent alone (NB4 cells [1]): inactive on its own | NB4 cell maturation in presence of 8CPT-cAMP (NB4 cells [1]): moderate granulocytic maturation | Granulocytic maturation relative to the effect of SR11237 in presence of the PKA agonist (NB4 cells [1]; uM concentration, with 8CPT-cAMP): less than 20%

SMILES: CC1(C)CC=C(c2ccc(-c3ccccc3)cc2)c2cc(/C=C/c3ccc(C(=O)O)cc3)ccc21 [Compound VI]
Effect on Compound I-induced differentiation (NB4 cells [1]; NB4 cells, antagonist 2 μM): abrogated | Inhibition of NB4 maturation induced by SR11237 plus 8CPT-cAMP (NB4 cells [1]; antagonist 2 μM): not inhibited

SMILES: CC1(C)CC=C(c2cnc3ccccc3c2)c2cc(C(=O)Nc3ccc(C(=O)O)cc3)ccc21 [Compound II]
Effect on Compound I-induced differentiation (NB4 cells [1]; NB4 cells, antagonist 2 μM): abrogated | Effect on maturation induced by 9-cis RA (NB4 cells [1]; NB4 cells, antagonist 2 μM): decreased dramatically | Inhibition of NB4 maturation induced by SR11237 plus 8CPT-cAMP (NB4 cells [1]; antagonist 2 μM): not inhibited

SMILES: Nc1ncnc2c1nc(Sc1ccc(Cl)cc1)n2[C@@H]1O[C@@H]2COP(=O)([O-])O[C@H]2[C@H]1O.[Na+] [Compound 8CPT-cAMP, 8-(4-Chlorophenylthio)-adenosine-3′,5′-cyclic monophosphate, sodium salt]
Lipid accumulation/differentiation, CPT-cAMP alone (T47D; 100 μM): No effect | Induction of NB4 cell maturation/differentiation, agent alone (NB4 cells [1]): did not exhibit any differentiating activity

SMILES: CC1=C(/C=C/C(C)=C/C=C/C(C)=C/C(=O)O)C(C)(C)CCC1 [ATRA, all-trans retinoic acid]
IL8 and MCPI expression (NB4 cells [2]; agent alone): induced | M-CSF and IP10 expression (NB4 cells [2]; agent alone): induced | G-CSF expression (NB4 cells [2]): incapable of stimulating G-CSF expression | IP 10, MCP1 or M-CSF expression in resistant cells (NB4-R2 cells): unable to induce | Induction of NB4 cell maturation/differentiation, agent alone (NB4 cells [1]): induce maturation

Activity with RAR-RXR heterodimers on a DR5-based reporter (RARα-RXRα heterodimer; agent alone): nearly inactive | Effect on ATRA-induced transactivation of DR5-based reporter (RARα-RXRα heterodimer; with ATRA): synergized with
SMILES: C=C(c1ccc(C(=O)O)cc1)c1cc2c(cc1C)C(C)(C)CC=C2C(C)C [Compound V, 4-[1-[5,6-Dihydro-3,5,5-trimethyl-8-(1-methylethyl)-2-naphthalenyl]ethenyl]benzoic acid]
Induction of NB4 cell maturation/differentiation, agent alone (NB4 cells [1]): did not exert any differentiative effect | NB4 cell maturation in presence of 8CPT-cAMP (NB4 cells [1]): induced maturation with a potency similar to 9-cis RA

EC50 (T47D; Homo sapiens, T47D, 168 h): 62 nM
SMILES: C=C(c1ccc(C(=O)O)cc1)c1cc2c(cc1C)C(C)(C)CCC2(C)C [bexarotene]
Increase of differentiation by addition of CPT-cAMP over RXR ligand alone (T47D): 20%

SMILES: CN1c2ccc([N+](=O)[O-])cc2N=C(c2ccc(C(=O)O)cc2)c2cc3c(cc21)C(C)(C)CCC3(C)C [HX531]
NB4 cell maturation in presence of 8CPT-cAMP (NB4 cells [1]): No crosstalk

SMILES: CC1(C)CCC(C)(C)c2cc(C3(c4ccc(C(=O)O)cc4)OCCO3)ccc21 [SR11237]
Transactivation of DR5-based reporter by coexpressed RAR and RXR in presence of the PKA agonist (RARα-RXRα heterodimer; with 8CPT-cAMP): did not observe any SR11237-induced transactivation | Increase of differentiation by addition of CPT-cAMP over RXR ligand alone (T47D): 20% | EC50 (T47D): 110 nM | Factor of synergy, G-CSF expression (NB4 cells [2]; SR11237 with 8CPT-cAMP): > 50 fold | G-CSF expression (NB4 cells [2]): does not affect G-CSF expression | SCF, IL8 and MCPI expression (NB4 cells [2]; agent on its own): induced | Induction of NB4 cell maturation/differentiation, agent alone (NB4 cells [1]): completely inactive | NB4 cell maturation in presence of 8CPT-cAMP (NB4 cells [1]): induced full maturation

SMILES: CC1(C)C(=O)C(C)(C)c2cc(C(=O)Nc3ccc(C(=O)O)cc3)ccc21 [Compound I, 4-[[(2,3-Dihydro-1,1,3,3-tetramethyl-2-oxo-1H-inden-5-yl)carbonyl]amino]benzoic acid]
Induction of NB4 cell maturation/differentiation, agent alone (NB4 cells [1]): induce maturation | Growth of NB4 cells (NB4 cells [1]; agent alone): growth inhibited
